{"source": "patent US12202853B2", "about": "“Epoxide polyene amphoteric macrolide and process for purifying natamycin” (DSM IP ASSETS B.V., priority 2018, dated 2025)", "origin": "cited, not measured here", "note": "Where two headings read alike, the source gives them in different places.", "data": [{"substance": "Natamycin", "values": [{"measurement": "solubility of natamycin in water", "setting": "neutral pH", "result": "around 40 mg/L"}, {"measurement": "solubility of natamycin in water", "setting": "neutral pH values, also printed as 40 ppm", "result": "around 0.04 g/L"}]}]}
